In a melting point compilation (Tetko et al.; mined from patent text by program, amines drawn as free bases though some values may be those of a salt):

Compound | melting point [°C]
CCOC(=O)COc1ccc2nc(CC)cc(OCc3ccc(-c4ccccc4-c4nnn(C(c5ccccc5)(c5ccccc5)c5ccccc5)n4)cc3)c2n1 | 146 to 150
CS(=O)(=O)Nc1cc(C(=O)NNC(=O)c2occ(-c3ccccc3)c2-c2ccccc2)ccc1O | 230 to 231
CCc1cc2c(s1)-n1c(nnc1C1CCCCC1)CN=C2c1ccccc1Cl | 116 to 119
COC1(c2cc(F)cc(OCc3ccc4ccccc4c3)c2)CCOCC1 | 109 to 111
COc1cc2c(cc1Cl)CCNCC2c1ccc(Br)cc1 (stereo not drawn) | 139 to 140
CCC(=O)NCc1ccc(CN2CCN(c3ncccn3)CC2)cc1 | 103 to 105
C[C@H](NS(=O)(=O)C12CC3CC(CC(C3)C1)C2)C(=O)N1CCC[C@H]1C(=O)Nc1ccccc1 | 138 to 141
COc1cc(OC)cc(-c2cc(=O)c3ccc(OCC4CO4)cc3o2)c1 (stereo not drawn) | 181 to 182
NC1C(=O)N(CCCO)c2ccccc2N(c2ccccc2)C1=O (stereo not drawn) | 55 to 58
CCCc1nc2c(C)ccc(OCc3ccccc3)c2[nH]1 | 192 to 194
O=C(NC(=O)C(c1ccccc1)c1ccccc1)OCCN1CCOCC1 | 135 to 137
Fc1ccc(F)c(-c2nc(-c3ccccn3)no2)c1 | 120 to 126
O=C(O)/C=C/c1ccc(-c2nc3c(=O)n(CC4CCCCC4)c(=S)n(CC4CCCCC4)c3[nH]2)cc1 | > 300
COc1cc(C)cc(OC)c1CCCCCNC(=O)[C@@H](CCCCNC(=O)C=Cc1ccccc1)NC(=O)c1cc2ccccc2n1CC(=O)O | 172
Cc1ccc(Sc2ncnc3c(C)csc23)cc1 | 103 to 107
COc1ccc2c(N)c3ccccc3nc2c1 | 169 to 170
CCC(=O)c1ccc(OC(C)(C)C(=O)OC)cc1 | 47 to 49
O=C(O)CC1(CC(O)=NO)CCCC1 | 70 to 74
CC(=O)NC(Cc1ccc(OCCc2nc(-c3ccccc3)oc2C)cc1)C(N)=O (stereo not drawn) | 224 to 226
CCCc1nc2c(N)nc3cccnc3c2n1CCCCN(OC)C(=O)NC(C)C | 161 to 162
CCCc1ccc(-c2ccc3c(c2)C=C(C(=O)OC)CCS3(=O)=O)cc1 | 155 to 156
CN1CCN(C2(CN(C)C(=O)c3ccc(Cl)c(Cl)c3)CCCCC2)CC1 | 126 to 129
COC(=O)c1ccc(C(=O)N(SSN(C(=O)c2ccc(C(=O)OC)cc2)c2ccccc2)c2ccccc2)cc1 | 276 to 278

Compound | melting point [°C]
Cc1ccc(N2C(=O)C(O)=C(C(=O)c3ccc(C(C)C)cc3)C2c2ccc(Cn3nccn3)cc2)nn1 (stereo not drawn) | 285
Cc1ncc(CN2CC=C(C#Cc3ccccc3)CC2)c(N)n1 | 187 to 188
COc1ccc(N(C(=O)CN2C(=O)C(Cc3nn(Cc4ccccc4)c4c3CCCC4)C(=O)N(c3ccccc3)c3ccccc32)C(C)C)cc1 (stereo not drawn) | 173 to 176
O=C(c1cccc(C(F)(F)F)c1)c1cc2c(Br)cccc2o1 | 91 to 92
N#CCc1ccc(Oc2ccc3c(c2)S(=O)(=O)NC2CCCN32)cc1 (stereo not drawn) | 156 to 158
COC(=O)C1Cc2c([nH]c3ccccc23)CN1C(=S)Sc1cccs1 (stereo not drawn) | 150 to 152
CC(N=C(O)C(Cl)=C(Cl)C(=O)O)c1ccccc1 (stereo not drawn) | 62 to 65
O=C1N(Cc2ccc(Cl)cc2)c2ccccc2C1(O)c1cc(OCc2ccccc2)ccc1O (stereo not drawn) | 172 to 175
COc1ccc(S(=O)(=O)C(C)(Cc2ccc(-c3ccccc3)cc2)C(=O)NO)cc1 (stereo not drawn) | 177
CCN(C=Nc1ccc2c(c1)nc(N(C)C)c1cc(N=CN(CC)CC)ccc12)CC | 124 to 126
c1ccc(OCCn2ccnc2)cc1 | 88
COc1cccc([C@H]2O[C@H](CC(=O)NCc3cccc(CCC(=O)O)c3)C(=O)N(CC(C)(C)CO)c3ccc(Cl)cc32)c1OC | 177 to 178
Cc1ccc(C=CC(=O)CCCCCl)cc1 | 79 to 82
CN1CCC(OC2c3cccc(-c4cccc(N)c4)c3CCn3cc(-c4ccccc4)nc32)CC1 (stereo not drawn) | 120
CCOC(=O)CNC(=O)[C@@H](C)NC(=O)CNC(=O)CSC(=O)c1ccccc1 | 137
Oc1ccc2c(c1)Cc1cc(Br)ccc1-2 | 183 to 184
CCCCNC(=O)c1ccc(S(=O)(=O)NC(=O)c2ccc(C(=O)NCC(=O)OC)nc2)cc1 | 215 to 217
COc1ccc(C(C#Cc2cccc(-c3nnc(C)o3)c2)CC(=O)O)cc1OC1CCCC1 (racemic) | 110 to 114
C#CCOc1ccc(-c2ccccc2NC(=O)C(NS(=O)(=O)CC)C(C)C)cc1OC (stereo not drawn) | 97 to 103
CCCCCCCCCCCCOc1cccc2c(OCCCCCCCCCCCC)cccc12 | 92 to 93
COc1cc2cc(C(C#N)(C(C)CC#N)N3CCOCC3)sc2cc1OC (stereo not drawn) | 162 to 165
CO/N=C/C1=NNC(=O)N(/N=C/c2cccnc2)C1 | 237 to 238
NC(=O)NCCC(F)=C(F)F | 86 to 88

Compound | melting point [°C]
CC(=O)Nc1nc2ccc(S(=O)(=O)n3c(CCCC(=O)O)cc4cc(Cl)ccc43)cc2s1 | > 250
Cc1oc(-c2ccc3ccccc3c2)nc1COc1ccc(COc2ncccc2CC(=O)O)cc1 | 155 to 156
O=[N+]([O-])c1ccc(Oc2ccc(C(F)(F)F)cc2Cl)cc1Oc1ccc(C(F)(F)F)cc1Cl | 111 to 113
CS(=O)(=O)c1ccc2c(c1)C(=O)Cc1ccccc1O2 | 105 to 106
CC(=O)c1ccc(OCCCCCCCCCCOc2ccccc2)o1 | 74 to 77
COc1cccc2c1Sc1ccc(Cl)cc1C2 | 95 to 96
CNC(=O)Oc1c(C)ccc2c1CC(C)C2(C)C (stereo not drawn) | 110
CC(C)Oc1cc(Oc2ccc(C(F)(F)F)cn2)ccc1CCCOc1cc(CCC(=O)O)n(C)n1 | 128 to 130
COC(=O)c1scc(C)c1NC(=S)N1CCN(c2ncnc3cc(OC)c(OC)cc23)CC1 | 113 to 116
Oc1ccc(C(=Cc2ccccc2)c2ccc(O)c(O)c2O)c(O)c1O | 142 to 143
O=C(O)c1ccc(C(F)(F)F)cc1-c1ccc2c(c1)OC[C@H](Cc1ccccc1)[C@H]2O | 142
CC1(C)CC(=C(c2ccccc2)c2ccc(OCCOCCO)cc2)CC(C)(C)C1 | 116 to 117
CS(=O)(=O)Nc1cc(OC[C@@H](O)CNC2CCN(c3ccc(C#N)cc3)CC2)ccc1O | 78 to 80
CCOCCn1c(COc2cccc(CO)c2)nc2ccccc21 | 105 to 107
COc1cc2c(cc1O)CCN(c1cc(N)c3cc(OC)c(OC)cc3n1)C2 | 250 to 251
O=[N+]([O-])c1ccccc1CCN1CCN(c2ccccc2)CC1 | 76
COC(=O)c1cc2c(O)c(C(=O)NCc3ccc(Cl)cc3)cnc2nc1C | 265 to 267
CS(=O)(=O)CC(=O)N[C@H]1CC[C@H](CCN2CCC(c3cccc4c3CCO4)CC2)CC1 | 211
Cn1c(-c2ccc(Cl)cc2)nc2cc(CN3CCN(C(c4ccccc4)c4ccccc4)CC3)ccc21 | 198
NC(=O)C1=C(O)C(NC(=S)c2ccccc2)C2CC3Sc4c(Cl)ccc(O)c4C(=O)C3=C(O)C2(O)C1=O (stereo not drawn) | 222
Cc1nc2ccc3c(c2o1)C(=CC#N)CC3 | 180 to 182
COc1cccc(C(O)c2cc(Cl)ccc2N(CC(N)=O)S(=O)(=O)c2ccc(OC)c(OC)c2)c1 (stereo not drawn) | 100

The next lines start with the values.

melting point [°C] | Compound
68 to 71 | C=CCN(CC=C)CC1Oc2c(cc(C)c3[nH]c(=O)ccc23)C1CF (stereo not drawn)
98 to 100 | Cc1ccc(OCc2ccccc2)c(C(=O)O)c1
153 to 155 | O=C1CCCC(=O)N1c1ccncc1
235 to 238 | C=C(F)c1c[nH]c(=O)[nH]c1=O
210 to 212 | O=C1CCC(c2ccccc2F)c2ccccc2N1 (stereo not drawn)
180 to 184 | CCCOc1c(OC)cc(C(=O)Cl)cc1[N+](=O)[O-]
310 | COc1ccc2[nH]c(=O)c(=O)n(C)c2c1
234 | O=C1NCCc2c[nH]c3cccc1c23
135 to 137 | Nc1ccccc1Sc1ncc[nH]1
273 to 276 | O=C(O)c1cn(C2COC2)c2cc(F)c(F)c(O)c2c1=O
206 to 209 | O=C(O)c1ccc(COCc2csc3nc(C(=O)NCc4ccnc(OCCCc5nc[nH]n5)c4)[nH]c(=O)c23)cc1
55 to 57 | CCN(CC)C(=O)C(C)n1cc(C)c(-c2ccccc2)n1 (stereo not drawn)
162 to 165 | CCOC(=O)c1cn(C2CC2)c2c(C#N)c(Cl)c(F)cc2c1=O
169 to 170 | CCCCC#CCCOc1ccc(/C=C/C(=O)Nc2ccccc2C(=O)O)cc1OC
226 to 228 | O=C1c2ccc([N+](=O)[O-])cc2C(=O)c2c(O)ccc(O)c21
135 to 138 | CCCc1nc(-n2cccc2)c(C(=O)OC)[nH]1
63 to 64 | CC(=O)c1ccc(-c2ccc(F)cc2F)c(Cl)c1
152 | COC(=O)c1cc(Br)c2cc(Cc3ccc(F)cc3)cnc2c1O
134 to 136 | CC(=O)SCCC(=O)N1c2ccc(Cl)cc2CCC1C(=O)O (stereo not drawn)
137 | CN(CCO)Cc1ccc(-c2ccc(N3C[C@H](Cn4ccnn4)OC3=O)cc2F)cn1
> 340 | CCOC(=O)c1c[nH]c2nc(Nc3ccc(C)c(Cl)c3)nn2c1=O
225 | NC(=O)c1cc(C(=O)c2ccccc2)ccc1N
> 300 | Nc1nc2c(ncn2COC(CO)COC(=O)C2(N)CC2)c(=O)[nH]1 (stereo not drawn)
258 to 259 | Cc1cc2nc3ccc(C#N)cn3c(=O)c2s1
105 to 110 | Cn1c(C(F)(F)F)cc(=O)n(-c2ccc3snc(C4OCC(O)(CBr)CO4)c3c2)c1=O (stereo not drawn)
> 300 | COc1cc2[nH]c(=O)c(C(=O)O)nc2cc1-n1ccc(CNC(=O)Nc2ccc(C(=O)O)cc2)c1
123 to 124 | O=C(c1ccc(Br)cc1)c1ccc([N+](=O)[O-])cc1
> 250 | NC(=O)N1CCN(c2ccc(O)c(O)c2)C1=O
214 to 220 | Nc1cc(CC(=O)O)cc(C(=O)O)c1
71 to 73 | OC(c1cc(Cl)cc(Cl)c1)C(F)(F)C(F)(F)F (stereo not drawn)
